Experiments:
[1] = target: T1, Mitogen-activated protein kinase kinase kinase 19 (Homo sapiens) (UniProt Q56UN5); test: Inhibition of YSK4 (unknown origin) assessed as residual activity at 1000 nM by KINOMEscan analysis relative to control
T1 sequence (whole entry): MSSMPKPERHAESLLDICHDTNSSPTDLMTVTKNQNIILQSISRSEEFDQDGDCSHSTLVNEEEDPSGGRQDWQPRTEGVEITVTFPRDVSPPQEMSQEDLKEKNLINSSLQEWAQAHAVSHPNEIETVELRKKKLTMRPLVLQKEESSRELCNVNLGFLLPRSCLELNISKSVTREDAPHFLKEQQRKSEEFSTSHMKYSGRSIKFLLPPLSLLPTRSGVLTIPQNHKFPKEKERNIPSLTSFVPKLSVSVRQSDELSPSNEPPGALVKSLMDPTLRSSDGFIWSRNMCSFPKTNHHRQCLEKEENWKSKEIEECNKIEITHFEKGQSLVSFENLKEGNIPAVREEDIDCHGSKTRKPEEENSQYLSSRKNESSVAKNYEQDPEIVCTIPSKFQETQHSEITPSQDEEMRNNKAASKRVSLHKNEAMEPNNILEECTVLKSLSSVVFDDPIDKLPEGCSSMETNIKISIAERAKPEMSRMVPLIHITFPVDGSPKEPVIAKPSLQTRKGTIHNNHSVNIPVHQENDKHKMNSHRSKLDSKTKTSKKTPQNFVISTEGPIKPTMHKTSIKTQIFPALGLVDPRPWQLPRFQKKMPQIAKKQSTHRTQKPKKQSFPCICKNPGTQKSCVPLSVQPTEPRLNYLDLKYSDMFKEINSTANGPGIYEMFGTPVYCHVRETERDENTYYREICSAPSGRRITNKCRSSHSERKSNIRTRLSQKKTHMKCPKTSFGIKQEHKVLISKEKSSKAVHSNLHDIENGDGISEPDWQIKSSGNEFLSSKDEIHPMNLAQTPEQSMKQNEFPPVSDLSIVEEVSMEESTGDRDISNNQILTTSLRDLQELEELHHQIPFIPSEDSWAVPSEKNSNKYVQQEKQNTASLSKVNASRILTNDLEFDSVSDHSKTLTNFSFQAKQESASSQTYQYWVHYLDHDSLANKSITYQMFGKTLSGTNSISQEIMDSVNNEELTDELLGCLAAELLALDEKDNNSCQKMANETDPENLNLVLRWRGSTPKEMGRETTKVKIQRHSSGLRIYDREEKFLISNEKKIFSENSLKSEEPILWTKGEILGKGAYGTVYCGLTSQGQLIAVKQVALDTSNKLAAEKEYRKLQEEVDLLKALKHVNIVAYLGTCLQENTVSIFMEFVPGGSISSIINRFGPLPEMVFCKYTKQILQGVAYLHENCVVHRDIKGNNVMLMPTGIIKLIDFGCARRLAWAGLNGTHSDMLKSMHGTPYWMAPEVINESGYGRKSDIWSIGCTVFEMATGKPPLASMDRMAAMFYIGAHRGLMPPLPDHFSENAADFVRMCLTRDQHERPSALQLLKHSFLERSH

[2] = target: T2, Serine/threonine-protein kinase TAO1 (Homo sapiens) (UniProt Q7L7X3); test: Inhibition of TAOK1 (unknown origin) assessed as residual activity at 1000 nM by KINOMEscan analysis relative to control
T2 sequence (whole entry): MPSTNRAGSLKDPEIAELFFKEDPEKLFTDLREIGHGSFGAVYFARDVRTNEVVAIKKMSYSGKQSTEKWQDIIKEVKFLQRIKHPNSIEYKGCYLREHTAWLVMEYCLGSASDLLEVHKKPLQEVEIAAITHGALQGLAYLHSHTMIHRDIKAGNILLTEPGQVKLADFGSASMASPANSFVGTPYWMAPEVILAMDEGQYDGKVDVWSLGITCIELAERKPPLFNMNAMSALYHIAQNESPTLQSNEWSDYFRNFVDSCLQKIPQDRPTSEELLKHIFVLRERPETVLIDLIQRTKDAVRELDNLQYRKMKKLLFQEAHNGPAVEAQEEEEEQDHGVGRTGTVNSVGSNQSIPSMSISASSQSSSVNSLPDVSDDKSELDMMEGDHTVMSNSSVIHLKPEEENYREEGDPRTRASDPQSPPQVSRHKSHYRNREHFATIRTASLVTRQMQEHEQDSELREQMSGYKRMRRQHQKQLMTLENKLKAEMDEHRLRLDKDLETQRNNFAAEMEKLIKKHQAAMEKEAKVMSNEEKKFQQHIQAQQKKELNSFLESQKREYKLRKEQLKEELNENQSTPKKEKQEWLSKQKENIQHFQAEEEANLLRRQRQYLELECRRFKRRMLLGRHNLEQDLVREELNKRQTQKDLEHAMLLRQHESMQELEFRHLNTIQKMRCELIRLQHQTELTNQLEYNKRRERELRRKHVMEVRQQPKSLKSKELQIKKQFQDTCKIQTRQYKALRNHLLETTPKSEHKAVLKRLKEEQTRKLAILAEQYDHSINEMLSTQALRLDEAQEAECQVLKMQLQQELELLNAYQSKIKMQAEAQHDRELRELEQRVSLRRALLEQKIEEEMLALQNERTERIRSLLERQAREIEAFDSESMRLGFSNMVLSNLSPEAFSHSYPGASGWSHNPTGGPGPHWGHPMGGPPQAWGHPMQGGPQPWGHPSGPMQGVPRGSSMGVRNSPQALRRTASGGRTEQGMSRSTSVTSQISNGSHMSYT

[3] = system: Tyrosine-protein kinase ABL1 (Homo sapiens), P00519 [F317L]; test: Inhibition of phosphorylated ABL1 F317L mutant (unknown origin) assessed as residual activity at 1000 nM by KINOMEscan analysis relative to control
[4] = target: Calcium/calmodulin-dependent protein kinase type II subunit gamma (Homo sapiens) (UniProt Q13555); test: Inhibition of CAMK2G (unknown origin) assessed as residual activity at 1000 nM by KINOMEscan analysis relative to control
[5] = target: TRAF2 and NCK-interacting protein kinase (Homo sapiens) (UniProt Q9UKE5); test: Inhibition of TNIK (unknown origin) assessed as residual activity at 1000 nM by KINOMEscan analysis relative to control
[6] = target: Myosin light chain kinase, smooth muscle (Homo sapiens) (UniProt Q15746); test: Inhibition of MYLK (unknown origin) assessed as residual activity at 1000 nM by KINOMEscan analysis relative to control
[7] = system: eIF-2-alpha kinase GCN2 (Homo sapiens), Q9P2K8 [S808G]; test: Inhibition of GCN2 S808G mutant […] domain (unknown origin) assessed as residual activity at 1000 nM by KINOMEscan analysis relative to control
[8] = target: ALK tyrosine kinase receptor (Homo sapiens) (UniProt Q9UM73); test: Inhibition of ALK (unknown origin) assessed as residual activity at 1000 nM by KINOMEscan analysis relative to control

Chain of TRAF2 and NCK-interacting protein kinase (Homo sapiens) (Q9UKE5 whole entry, looked up): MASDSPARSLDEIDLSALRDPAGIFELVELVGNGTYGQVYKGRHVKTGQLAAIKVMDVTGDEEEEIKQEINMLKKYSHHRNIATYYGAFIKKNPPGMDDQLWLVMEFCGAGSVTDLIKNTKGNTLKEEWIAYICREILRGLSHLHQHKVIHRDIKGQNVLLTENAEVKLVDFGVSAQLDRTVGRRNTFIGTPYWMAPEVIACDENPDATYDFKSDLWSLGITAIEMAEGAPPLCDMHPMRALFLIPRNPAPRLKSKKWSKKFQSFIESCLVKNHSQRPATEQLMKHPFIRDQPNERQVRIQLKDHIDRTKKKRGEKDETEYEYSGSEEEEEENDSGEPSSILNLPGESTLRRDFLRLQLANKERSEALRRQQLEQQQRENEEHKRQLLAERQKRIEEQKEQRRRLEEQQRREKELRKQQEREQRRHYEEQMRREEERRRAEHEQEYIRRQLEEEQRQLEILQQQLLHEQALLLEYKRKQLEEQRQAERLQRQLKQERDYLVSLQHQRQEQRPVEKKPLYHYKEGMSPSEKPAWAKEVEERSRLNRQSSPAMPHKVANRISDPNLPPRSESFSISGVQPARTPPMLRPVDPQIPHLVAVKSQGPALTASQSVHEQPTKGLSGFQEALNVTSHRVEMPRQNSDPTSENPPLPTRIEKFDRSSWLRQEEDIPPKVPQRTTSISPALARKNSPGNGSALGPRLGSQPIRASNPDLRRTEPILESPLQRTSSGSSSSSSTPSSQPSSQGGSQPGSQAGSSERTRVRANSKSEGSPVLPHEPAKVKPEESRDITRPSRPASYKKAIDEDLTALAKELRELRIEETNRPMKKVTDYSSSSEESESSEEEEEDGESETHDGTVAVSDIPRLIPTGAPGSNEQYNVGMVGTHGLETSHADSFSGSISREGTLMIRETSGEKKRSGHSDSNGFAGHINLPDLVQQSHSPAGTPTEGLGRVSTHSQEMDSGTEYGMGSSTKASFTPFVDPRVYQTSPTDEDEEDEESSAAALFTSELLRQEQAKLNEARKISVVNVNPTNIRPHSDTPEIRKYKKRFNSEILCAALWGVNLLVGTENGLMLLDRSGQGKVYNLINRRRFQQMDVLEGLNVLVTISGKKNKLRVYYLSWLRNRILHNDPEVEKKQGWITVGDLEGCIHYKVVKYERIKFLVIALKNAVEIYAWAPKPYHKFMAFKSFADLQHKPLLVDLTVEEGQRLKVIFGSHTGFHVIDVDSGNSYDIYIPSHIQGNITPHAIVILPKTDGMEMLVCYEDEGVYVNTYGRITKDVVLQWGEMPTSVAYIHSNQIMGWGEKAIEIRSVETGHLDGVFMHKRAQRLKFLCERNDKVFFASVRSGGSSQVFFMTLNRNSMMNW
Chain of Tyrosine-protein kinase ABL1 (Homo sapiens), P00519 [F317L] (P00519 whole entry F317L): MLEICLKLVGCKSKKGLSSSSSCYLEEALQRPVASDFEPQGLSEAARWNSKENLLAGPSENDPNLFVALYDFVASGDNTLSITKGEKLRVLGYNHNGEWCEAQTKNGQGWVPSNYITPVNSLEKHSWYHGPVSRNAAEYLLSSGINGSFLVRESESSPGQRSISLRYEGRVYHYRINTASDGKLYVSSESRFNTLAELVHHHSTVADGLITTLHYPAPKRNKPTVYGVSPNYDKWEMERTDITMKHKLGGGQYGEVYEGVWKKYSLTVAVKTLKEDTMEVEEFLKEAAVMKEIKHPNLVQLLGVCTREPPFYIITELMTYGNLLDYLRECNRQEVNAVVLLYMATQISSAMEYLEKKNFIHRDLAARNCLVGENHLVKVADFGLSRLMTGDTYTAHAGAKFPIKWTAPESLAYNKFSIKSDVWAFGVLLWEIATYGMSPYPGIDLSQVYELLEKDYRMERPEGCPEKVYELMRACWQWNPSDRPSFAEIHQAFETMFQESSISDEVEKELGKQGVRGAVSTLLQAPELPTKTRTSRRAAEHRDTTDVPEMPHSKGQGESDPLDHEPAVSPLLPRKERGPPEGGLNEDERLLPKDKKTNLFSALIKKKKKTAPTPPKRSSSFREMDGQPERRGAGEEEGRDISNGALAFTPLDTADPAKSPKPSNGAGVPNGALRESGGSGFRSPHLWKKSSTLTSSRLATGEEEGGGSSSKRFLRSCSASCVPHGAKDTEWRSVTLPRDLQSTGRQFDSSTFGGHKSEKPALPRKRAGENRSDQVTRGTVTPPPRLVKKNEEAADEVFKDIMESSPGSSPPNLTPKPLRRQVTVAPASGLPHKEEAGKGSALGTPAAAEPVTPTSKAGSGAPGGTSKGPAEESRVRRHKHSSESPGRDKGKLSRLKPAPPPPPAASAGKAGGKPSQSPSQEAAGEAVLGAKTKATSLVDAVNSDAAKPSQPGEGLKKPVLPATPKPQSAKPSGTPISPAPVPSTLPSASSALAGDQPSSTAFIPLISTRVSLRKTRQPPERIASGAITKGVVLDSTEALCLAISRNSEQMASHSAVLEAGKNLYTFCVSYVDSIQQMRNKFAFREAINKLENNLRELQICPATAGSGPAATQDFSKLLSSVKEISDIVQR
Chain of Calcium/calmodulin-dependent protein kinase type II subunit gamma (Homo sapiens) (Q13555 whole entry): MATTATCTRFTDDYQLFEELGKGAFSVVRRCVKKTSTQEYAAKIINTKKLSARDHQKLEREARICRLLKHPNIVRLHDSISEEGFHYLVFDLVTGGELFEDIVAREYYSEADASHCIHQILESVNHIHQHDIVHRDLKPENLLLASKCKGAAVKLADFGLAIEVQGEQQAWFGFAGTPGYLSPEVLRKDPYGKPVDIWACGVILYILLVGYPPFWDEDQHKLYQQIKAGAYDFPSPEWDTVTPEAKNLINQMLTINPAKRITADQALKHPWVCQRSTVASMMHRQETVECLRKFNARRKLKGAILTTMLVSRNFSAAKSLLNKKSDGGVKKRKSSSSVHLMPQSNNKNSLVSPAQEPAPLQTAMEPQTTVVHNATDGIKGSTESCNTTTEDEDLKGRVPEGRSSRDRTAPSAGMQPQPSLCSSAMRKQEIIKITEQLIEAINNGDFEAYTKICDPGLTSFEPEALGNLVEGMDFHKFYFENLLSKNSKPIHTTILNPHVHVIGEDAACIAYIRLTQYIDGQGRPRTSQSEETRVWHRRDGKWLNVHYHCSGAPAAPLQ
Chain of Myosin light chain kinase, smooth muscle (Homo sapiens) (Q15746 whole entry): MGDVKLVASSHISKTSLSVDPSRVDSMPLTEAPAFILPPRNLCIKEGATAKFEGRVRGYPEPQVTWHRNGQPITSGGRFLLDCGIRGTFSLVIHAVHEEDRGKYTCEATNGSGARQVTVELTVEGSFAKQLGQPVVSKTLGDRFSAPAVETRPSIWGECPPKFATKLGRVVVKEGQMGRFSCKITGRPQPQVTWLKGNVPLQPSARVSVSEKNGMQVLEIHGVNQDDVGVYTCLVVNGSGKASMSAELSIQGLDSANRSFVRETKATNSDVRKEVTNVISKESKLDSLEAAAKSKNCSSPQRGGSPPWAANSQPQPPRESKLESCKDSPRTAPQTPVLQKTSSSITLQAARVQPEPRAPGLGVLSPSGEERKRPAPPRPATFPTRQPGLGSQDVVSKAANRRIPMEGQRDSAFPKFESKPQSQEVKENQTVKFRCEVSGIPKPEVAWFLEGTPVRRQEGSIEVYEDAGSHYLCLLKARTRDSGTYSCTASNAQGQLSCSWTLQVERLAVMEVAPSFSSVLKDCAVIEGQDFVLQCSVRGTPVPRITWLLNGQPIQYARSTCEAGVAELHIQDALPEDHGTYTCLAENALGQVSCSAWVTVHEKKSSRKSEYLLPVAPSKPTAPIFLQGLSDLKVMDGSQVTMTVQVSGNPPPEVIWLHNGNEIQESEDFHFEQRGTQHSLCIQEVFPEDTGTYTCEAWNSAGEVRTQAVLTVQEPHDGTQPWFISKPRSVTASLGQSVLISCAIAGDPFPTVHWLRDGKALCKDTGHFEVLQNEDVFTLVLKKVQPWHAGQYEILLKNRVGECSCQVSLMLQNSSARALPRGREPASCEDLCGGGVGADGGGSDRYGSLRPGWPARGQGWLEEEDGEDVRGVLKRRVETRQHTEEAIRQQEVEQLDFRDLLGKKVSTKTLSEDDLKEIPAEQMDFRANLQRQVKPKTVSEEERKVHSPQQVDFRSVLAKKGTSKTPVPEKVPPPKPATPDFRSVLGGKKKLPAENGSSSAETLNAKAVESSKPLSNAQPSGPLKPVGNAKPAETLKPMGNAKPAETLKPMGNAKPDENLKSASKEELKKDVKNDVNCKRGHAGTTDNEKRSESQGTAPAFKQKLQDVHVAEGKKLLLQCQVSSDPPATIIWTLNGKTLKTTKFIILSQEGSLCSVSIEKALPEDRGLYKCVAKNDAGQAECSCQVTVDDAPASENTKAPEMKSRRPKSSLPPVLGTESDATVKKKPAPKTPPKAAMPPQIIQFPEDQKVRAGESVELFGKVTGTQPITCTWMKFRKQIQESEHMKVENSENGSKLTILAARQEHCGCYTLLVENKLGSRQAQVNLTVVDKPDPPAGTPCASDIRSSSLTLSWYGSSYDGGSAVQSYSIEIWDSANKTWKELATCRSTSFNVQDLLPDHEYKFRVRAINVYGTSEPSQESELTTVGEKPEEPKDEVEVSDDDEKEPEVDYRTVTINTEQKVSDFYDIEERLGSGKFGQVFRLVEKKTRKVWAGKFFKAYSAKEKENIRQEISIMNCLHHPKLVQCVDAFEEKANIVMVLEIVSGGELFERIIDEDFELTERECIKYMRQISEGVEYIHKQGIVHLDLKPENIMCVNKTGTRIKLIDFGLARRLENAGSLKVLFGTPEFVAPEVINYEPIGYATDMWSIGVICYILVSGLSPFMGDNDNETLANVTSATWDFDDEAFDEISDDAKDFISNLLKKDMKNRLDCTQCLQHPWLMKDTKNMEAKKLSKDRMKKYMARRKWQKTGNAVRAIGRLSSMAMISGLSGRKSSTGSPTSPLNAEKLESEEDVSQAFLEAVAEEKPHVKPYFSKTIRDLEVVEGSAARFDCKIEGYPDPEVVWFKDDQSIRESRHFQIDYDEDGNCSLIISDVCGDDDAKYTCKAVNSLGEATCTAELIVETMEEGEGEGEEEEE

Compound	Activity [1]	Activity [2]	Activity [3]	Activity [4]	Activity [5]	Activity [6]	Activity [7]	Activity [8]
COc1cc2nc(C)nc(N[C@H](C)c3cccc(-c4cn[nH]c4)c3)c2cc1OC	84%	100%	92%	83%	87%	97%	100%	100%
COc1cc2ncnc(N[C@H](C)c3cccc4ccccc34)c2cc1OC	90%	89%	89%	92%	100%	88%	100%	85%

Reference: ChEMBL document CHEMBL5678818, “Discovery of potent SOS1 inhibitors that block RAS activation via disruption of the RAS-SOS1 interaction” (Proc Natl Acad Sci U S A, 2019)
